Laboratory results: patent publication US8883826B2, “Alkynyl derivatives as modulators of metabotropic glutamate receptors” (Addex Pharma SA, priority 2004, dated 2014)
Entries after “also recorded” stand apart in the source; their conditions may differ.

Experiments:
Male Sprague-Dawley rats = assay: Vogel conflict drinking model of anxiety; assay type: in vivo, rat; details: n=9-10/group
Source text: Vogel Conflict Drinking Model of Anxiety in Rats
The Vogel conflict drinking model involves the conflict between thirst and receiving mild shocks for drinking water (punished drinking). Water-deprived rats are placed in a chamber and are periodically shocked for drinking water. The shocks suppress drinking and anxiolytics reverse this shock-induced suppression of drinking. The Vogel conflict drinking model was first proposed as a screening model for anxiolytics (Vogel, J. R. et al., Psychopharmacologia (Berl.), 21:1-7 (1971)) and is widely accepted as a robust model for testing the anxiolytic-like properties of compounds (Millan, M. J. and Brocco M., European Journal of Pharmacology, 463:67-96 (2003)).
Such compounds may be useful in the treatment of anxiety and related disorders. […]
The effect of compounds on drinking in the Vogel conflict drinking model in rats was tested. […] The number of punished drinks was counted automatically by the computer interface. […]
Statistical analyses were performed using GraphPad PRISM version 4.01 statistical software (GraphPad, San Diego, Calif., USA). Data were analyzed using one-way analysis of variance (ANOVA) followed by Bonferroni multiple comparisons. […]

mGluR5 = molecular target: T1, mGluR5 (Rattus norvegicus, UniProt P31424); assay: mGluR5 binding assay ([3H]-MPEP radioligand competition); details: competition with 3 nM [3H]-MPEP, rat brain cortical membranes, 1 h at 4 °C; mean of at least three independent experiments in duplicate
T1 construct: tissue Charles River Laboratories; host or cells: rat brain cortex membranes (Sprague-Dawley)
T1 sequence (P31424 21-1203): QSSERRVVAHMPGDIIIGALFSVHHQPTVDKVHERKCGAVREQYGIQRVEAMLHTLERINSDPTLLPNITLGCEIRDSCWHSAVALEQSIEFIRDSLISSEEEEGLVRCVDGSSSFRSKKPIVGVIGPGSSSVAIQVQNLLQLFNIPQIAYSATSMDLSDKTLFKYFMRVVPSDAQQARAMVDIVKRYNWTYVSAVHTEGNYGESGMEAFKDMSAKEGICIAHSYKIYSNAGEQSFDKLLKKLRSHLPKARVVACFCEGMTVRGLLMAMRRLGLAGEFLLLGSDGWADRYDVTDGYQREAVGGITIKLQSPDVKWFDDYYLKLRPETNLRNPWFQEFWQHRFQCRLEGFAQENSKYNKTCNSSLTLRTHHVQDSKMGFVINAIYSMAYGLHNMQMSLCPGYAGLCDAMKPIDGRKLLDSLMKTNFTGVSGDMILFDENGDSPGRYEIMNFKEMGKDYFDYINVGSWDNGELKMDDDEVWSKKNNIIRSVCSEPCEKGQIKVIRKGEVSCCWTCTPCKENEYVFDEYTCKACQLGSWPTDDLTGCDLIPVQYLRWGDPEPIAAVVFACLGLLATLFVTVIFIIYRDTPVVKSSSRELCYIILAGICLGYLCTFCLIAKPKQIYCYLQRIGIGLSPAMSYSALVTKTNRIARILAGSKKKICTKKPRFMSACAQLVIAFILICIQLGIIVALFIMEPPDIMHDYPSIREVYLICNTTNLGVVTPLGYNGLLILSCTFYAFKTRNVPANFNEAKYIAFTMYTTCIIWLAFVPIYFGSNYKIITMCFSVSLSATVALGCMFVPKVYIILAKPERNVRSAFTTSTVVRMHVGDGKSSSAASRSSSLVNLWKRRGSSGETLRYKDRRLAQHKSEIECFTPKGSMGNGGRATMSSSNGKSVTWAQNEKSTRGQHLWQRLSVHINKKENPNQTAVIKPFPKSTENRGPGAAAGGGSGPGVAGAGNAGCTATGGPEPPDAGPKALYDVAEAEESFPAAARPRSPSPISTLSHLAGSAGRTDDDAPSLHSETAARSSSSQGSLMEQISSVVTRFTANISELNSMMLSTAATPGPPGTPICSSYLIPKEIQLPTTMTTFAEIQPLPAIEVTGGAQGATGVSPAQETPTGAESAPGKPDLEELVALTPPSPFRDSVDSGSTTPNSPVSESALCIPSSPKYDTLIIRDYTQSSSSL
How it was run: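 Rat cortical membranes (50 μg) were incubated 1 h at 4 °C with 3 nM [3H]-MPEP and compound (0.003 nM-30 μM, 8 points) in HEPES buffer pH 7.4 with Mg2+, Ca2+ and NaCl. 30 μM MPEP defined non-specific binding, and bound label was counted after filtration. IC50 came from non-linear regression, as the mean of ≥3 experiments run in duplicate.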

Male C57BL6/j mice = assay: Marble burying model of anxiety; assay type: in vivo, mouse; details: 60 minutes prior to test, n=10/group
Source text: Marble Burying Model of Anxiety
Marble burying behavior in mice is reduced by compounds which are efficacious anxiolytics in humans. Thus, marble burying in mice has been used as a model for the prediction of anxiolytic-like effects of compounds (Millan, M. J. et al., Neuropharmacology, 42:677-684 (2002)).
Selective negative allosteric modulators (allosteric antagonists) of the metabotropic glutamate receptor subtype 5 (mGluR5) have been shown previously to reduce marble burying in mice (Spooren, W. P. et al., Journal of Pharmacology and Experimental Therapeutics, 295:1267-1275 (2000)). […] Such compounds may be useful in the treatment of anxiety and related disorders.
The present studies were performed in accordance with the animal care and use policies of Addex Pharmaceuticals and the EEC directives on the protection of animals used for experimental and other scientific purposes (86/609/EEC and subsequent revisions). […]
The effect of compounds on marble burying in mice was tested. […] After removal of the mice from the test cages, the number of marbles buried was counted. […]
Statistical analyses were performed using GraphPad PRISM version 4.01 statistical software (GraphPad, San Diego, Calif., USA). Data were analyzed using one-way analysis of variance (ANOVA) followed by Bonferroni-corrected multiple comparisons, or t tests if only 2 groups were present. […]

melting point | IC50 (mGluR5) | Compound | punished drinking in the Vogel conflict drinking test (vs vehicle) (Male Sprague-Dawley rats; 30 mg/kg po, t(1, 17)=2.593, hydrochloride) | marble burying in mice (number of marbles buried vs vehicle) (Male C57BL6/j mice; 50 mg/kg po, t (1, 18)=3.92) | punished drinking in the Vogel conflict drinking test (vs vehicle) (Male Sprague-Dawley rats; 10 mg/kg po, t=3.585, p<0.01) | marble burying in mice (number of marbles buried vs vehicle) (Male C57BL6/j mice; 30 mg/kg po, t=3.686, p<0.01)
172.5 to 173.5 °C | < 50 nM | Cl.FCc1cccc(C#CCCn2nc3ccccc3n2)n1 [Example 130, 2-(4-(6-(Fluoromethyl)pyridin-2-yl)but-3-ynyl)-2H-benzo[d][1,2,3]triazole hydrochloride] | significantly increases punished drinking; also recorded: took significantly more punished licks than vehicle injected controls | – | – | –
106 to 107 °C | < 50 nM | Clc1cccn2cc(CCC#Cc3ccccn3)nc12 [Example 255, 8-Chloro-2-(4-(pyridin-2-yl)but-3-ynyl)-imidazo[1,2-a]pyridine] | – | significantly attenuates marble burying; also recorded: buried significantly fewer marbles than vehicle-treated mice | – | –
73 to 74.5 °C | < 50 nM | FCc1cccc(C#CCCc2cn3cccc(Cl)c3n2)n1 [Example 256, 8-Chloro-2-(4-(6-(fluoromethyl)pyridin-2-yl)but-3-ynyl)-imidazo[1,2-a]pyridine] | – | – | significantly increases punished drinking; also recorded: accepted significantly more shocks than vehicle-treated rats | significantly attenuates marble burying; also recorded: buried fewer marbles than vehicle-treated mice
